The test system of assay [1] is Magnaporthe oryzae Triticum (MoT) isolate BTJP 4 (5).
For assay [2], the system named is Magnaporthe oryzae Triticum (MoT) conidia. Conditions: 50 μg/ml.
The subject of assay [3] is Magnaporthe oryzae Triticum (MoT) on detached wheat leaves cv. BARI Gom 24 (Prodip). Conditions: in vivo.

Values joined by “and” are separate entries in the source; they are usually repeats but may differ in a detail not shown here. Identical values can stand only once. Like-named read-outs stand apart in the source and are kept apart here. Marks after values point to notes of the source that are not given here.

Gageotetrin B: in assay [1], the “Activity against MoT” value is “Active”; the “Minimum inhibitory concentration (MIC) on mycelial growth” value turned out to be 1.5 μg/disk; the “Morphology of treated hyphae (microscopy)” value is “coarse, loss of radial growth, and irregular swelling on the tips”; the “Mycelial growth inhibition at the MIC” value turned out to be 22.9 ± 1.6%. Moreover, in assay [1], the “Percent inhibition of radial growth (PIRG) of mycelia” value is 60.9 ± 2.5% and 59 ± 0.9% and 51.4 ± 1.7%. In assay [2] (0 h), the “Germinated conidia (% ± SE)” value is given as 0 ± 0^f % and the “Major morphological change/developmental transitions in the treated conidia” value was “No germination”. For the same substance, the “Major morphological change/developmental transitions in the treated conidia” value in assay [2] (6 h) is on record as “Germinated with a short germ tube”. Also, in assay [2] (12 h), the “Major morphological change/developmental transitions in the treated conidia” value is given as “Deformed germ tube (swollen)”. In assay [2] (24 h), the “Major morphological change/developmental transitions in the treated conidia” value is given as “Abnormal appressoria formed; no mycelial growth took place”. The “Conidia with abnormally swollen (deformed) germ tubes” value in assay [2] (after 12 h) is given as 41 ± 3.8%. Moreover, in assay [3], the “Average lesion length of wheat blast on detached leaves” value came to 1.5 ± 0.1 mm.
